Values after ≈ are worked out from the molar mass of the structure shown. Active and inactive are the calls of the source. The calls are words filed in the database; no cut-off is given here.
Experiments:
Enterococcus faecalis [1] = experiment: Ratio of MBC to MIC for Enterococcus faecalis; format: functional
Escherichia coli = experiment: Antibacterial activity against Escherichia coli assessed as inhibition of bacterial growth by two-fold serial broth dilution method; format: functional
Albumin [2] = biological target: T1, Albumin (Homo sapiens, UniProt P02768); experiment: Binding affinity to human serum albumin assessed as binding constant at 308K by fluorescence based analysis; format: ADME; conditions: isolated protein
T1 sequence (P02768 whole entry): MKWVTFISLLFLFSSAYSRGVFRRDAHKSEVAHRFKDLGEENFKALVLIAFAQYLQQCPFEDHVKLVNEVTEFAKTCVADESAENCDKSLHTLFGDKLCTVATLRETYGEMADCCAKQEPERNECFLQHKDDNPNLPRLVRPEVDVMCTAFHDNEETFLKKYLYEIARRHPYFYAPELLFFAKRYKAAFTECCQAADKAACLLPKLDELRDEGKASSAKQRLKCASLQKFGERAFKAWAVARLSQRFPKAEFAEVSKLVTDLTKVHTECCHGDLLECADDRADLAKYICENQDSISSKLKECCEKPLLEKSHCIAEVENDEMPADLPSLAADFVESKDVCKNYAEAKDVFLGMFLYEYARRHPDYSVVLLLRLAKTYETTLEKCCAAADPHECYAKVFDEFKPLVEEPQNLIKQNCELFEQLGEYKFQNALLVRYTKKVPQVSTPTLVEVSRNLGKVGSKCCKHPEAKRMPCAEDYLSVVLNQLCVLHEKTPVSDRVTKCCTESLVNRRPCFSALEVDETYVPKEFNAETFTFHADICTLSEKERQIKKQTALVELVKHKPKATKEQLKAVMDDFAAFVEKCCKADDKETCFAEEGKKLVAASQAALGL

Calf thymus DNA [3] = experiment: Binding affinity to calf thymus DNA assessed as DNA intercalation by measuring quenching in emission band at 601 nm at 0 to 90 uM by ethidium bromide competitive displacement assay; format: nucleic-acid assay; conditions: Bos taurus; dose 0-90 µM
Albumin [4] = biological target: T1, Albumin; experiment: Binding affinity to human serum albumin assessed as Stem-Volmer quenching constant at 308K by fluorescence based analysis; format: ADME; conditions: isolated protein
Staphylococcus aureus [5] = experiment: Bactericidal activity against Staphylococcus aureus assessed as inhibition of bacterial growth at 1/4XMIC measured for 3 hrs by time-kill analysis; format: functional, organism-based
Enterococcus faecalis [6] = experiment: Bacteriostatic activity against Enterococcus faecalis assessed as inhibition of bacterial growth; format: functional
HEK293 [7] = experiment: Cytotoxicity against human HEK293 cells at 1 uM by MTT assay; format: toxicity, cell-based; conditions: hek293, 1 µM
Albumin [8] = biological target: T1, Albumin; experiment: Binding affinity to human serum albumin assessed as change in free energy at 298K by Van't Hoff plot analysis; format: ADME; conditions: isolated protein
Albumin [9] = biological target: T1, Albumin; experiment: Binding affinity to human serum albumin assessed as Stem-Volmer quenching constant at 298K by fluorescence based analysis; format: ADME; conditions: isolated protein
Calf thymus DNA [10] = experiment: Binding affinity to calf thymus DNA by Benesi-Hildebrand equation based analysis; format: nucleic-acid assay; conditions: Bos taurus
HEK293 [11] = experiment: Cytotoxicity against human HEK293 cells at 0.01 uM by MTT assay; format: toxicity, cell-based; conditions: hek293, 0.01 µM
Staphylococcus aureus [12] = experiment: Ratio of MBC to MIC for Staphylococcus aureus; format: functional
Staphylococcus aureus [13] = experiment: Antibacterial activity against Staphylococcus aureus assessed as inhibition of bacterial growth by two-fold serial broth dilution method; format: functional
Albumin [14] = biological target: T1, Albumin; experiment: Binding affinity to human serum albumin assessed as change in entropy by Van't Hoff plot analysis; format: ADME; conditions: isolated protein
Staphylococcus aureus [15] = experiment: Antibacterial activity against Staphylococcus aureus assessed as inhibition of bacterial growth measured after 11 passages; format: functional, organism-based
Albumin [16] = biological target: T1, Albumin; experiment: Binding affinity to human serum albumin assessed as hyperchromic shift at 280 nm at 0 to 18 uM by UV-Vis absorption spectroscopic analysis; format: ADME; conditions: isolated protein, dose 0-18 µM
HEK293 [17] = experiment: Cytotoxicity against human HEK293 cells at 0.1 uM by MTT assay; format: toxicity, cell-based; conditions: hek293, 0.1 µM
Cell membrane [18] = experiment: Induction of cell membrane damage in Staphylococcus aureus assessed as broken cell membrane at 2XMIC by SEM analysis; format: cell membranes
HEK293 [19] = experiment: Cytotoxicity against human HEK293 cells at 100 uM by MTT assay; format: toxicity, cell-based; conditions: hek293, 100 µM
Staphylococcus aureus [20] = experiment: Bactericidal activity against Staphylococcus aureus assessed as decrease in bacterial absorbance at 1/2XMIC measured after 2 hrs by time-kill analysis; format: functional, organism-based
Albumin [21] = biological target: T1, Albumin; experiment: Binding affinity to human serum albumin assessed as change in free energy at 318K by Van't Hoff plot analysis; format: ADME; conditions: isolated protein
Cell membrane [22] = experiment: Induction of cell membrane damage in Staphylococcus aureus assessed as increase in leaked protein content at MIC to 8XMIC; format: cell membranes
Albumin [23] = biological target: T1, Albumin; experiment: Binding affinity to human serum albumin assessed as Stem-Volmer quenching constant at 318K by fluorescence based analysis; format: ADME; conditions: isolated protein
Calf thymus DNA [24] = experiment: Binding affinity to calf thymus DNA assessed as hypochromic shift in absorption band at 344 nm at 5 uM by UV-Vis absorption spectroscopy; format: nucleic-acid assay; conditions: Bos taurus
Calf thymus DNA [25] = experiment: Binding affinity to calf thymus DNA assessed as quenching constant by fluorescence based analysis; format: nucleic-acid assay; conditions: Bos taurus
Cell membrane [26] = experiment: Induction of Inner membrane disruption in Staphylococcus aureus assessed as increase in fluorescence intensity at MIC to 4XMIC measured for 5 to 30 mins by EtBr dye based fluorescence analysis; format: cell membranes; conditions: time 5-30 min, TDE = time-dependent effect
Albumin [27] = biological target: T1, Albumin; experiment: Binding affinity to human serum albumin assessed as quenching in emission band at 350 nm at 0 to 35 uM at 298 to 318K by fluorescence based analysis; format: ADME; conditions: isolated protein, dose 0-35 µM
Calf thymus DNA [28] = experiment: Binding affinity to calf thymus DNA assessed as Stern-Volmer quenching constant by fluorescence based analysis; format: nucleic-acid assay; conditions: Bos taurus
Staphylococcus aureus [29] = experiment: Bactericidal activity against Staphylococcus aureus assessed as bacterial killing; format: functional
Staphylococcus aureus [30] = experiment: Anti-biofilm activity against Staphylococcus aureus assessed as inhibition of biofilm formation at MIC by crystal violet assay; format: functional
Cell membrane [31] = experiment: Induction of Outer membrane disruption in Staphylococcus aureus assessed as […] in fluorescence intensity at MIC to 4X MIC by NPN dye based fluorescence analysis
Albumin [32] = biological target: T1, Albumin; experiment: Binding affinity to human serum albumin assessed as change in enthalpy by Van't Hoff plot analysis; format: ADME; conditions: isolated protein
Albumin [33] = biological target: T1, Albumin; experiment: Binding affinity to human serum albumin assessed as change in free energy at 308K by Van't Hoff plot analysis; format: ADME; conditions: isolated protein
Albumin [34] = biological target: T1, Albumin; experiment: Binding affinity to human serum albumin assessed as binding constant at 318K by fluorescence based analysis; format: ADME; conditions: isolated protein
Staphylococcus aureus [35] = experiment: Bactericidal activity against Staphylococcus aureus assessed as decrease in bacterial absorbance at MIC measured after 1 hr by time-kill analysis; format: functional, organism-based
Calf thymus DNA [36] = experiment: Binding affinity to calf thymus DNA assessed as DNA intercalation by measuring increase in DNA melting temperature by thermal denaturation based analysis; format: nucleic-acid assay; conditions: Bos taurus
Staphylococcus aureus [37] = experiment: Anti-biofilm activity against Staphylococcus aureus assessed as inhibition of biofilm formation at 1/2XMIC by crystal violet assay; format: functional
Cell membrane [38] = experiment: Induction of cell membrane damage in Staphylococcus aureus assessed as loss of bacterial metabolic activity at MIC to 8XMIC by Alamar blue dye based fluorescence analysis; format: cell membranes
Calf thymus DNA [39] = experiment: Binding affinity to calf thymus DNA assessed as binding constant by fluorescence based analysis; format: nucleic-acid assay; conditions: Bos taurus
Staphylococcus aureus [40] = experiment: Anti-biofilm activity against Staphylococcus aureus assessed as inhibition of biofilm formation at 1/16XMIC by crystal violet assay; format: functional
Enterococcus faecalis [41] = experiment: Antibacterial activity against Enterococcus faecalis assessed as inhibition of bacterial growth by two-fold serial broth dilution method; format: functional
Cell membrane [42] = experiment: Induction of Outer membrane disruption in Staphylococcus aureus assessed as […] in fluorescence intensity at MIC to 4X MIC measured for 5 to 30 mins by NPN dye based fluorescence analysis; conditions: time 5-30 min, TDE = time-dependent effect
Bacillus subtilis = experiment: Antibacterial activity against Bacillus subtilis assessed as inhibition of bacterial growth by two-fold serial broth dilution method; format: functional
Salmonella enterica = experiment: Antibacterial activity against Salmonella enterica assessed as inhibition of bacterial growth by two-fold serial broth dilution method; format: functional
HEK293 [43] = experiment: Cytotoxicity against human HEK293 cells at 10 uM by MTT assay; format: toxicity, cell-based; conditions: hek293, 10 µM
Listeria = experiment: Antibacterial activity against Listeria sps. assessed as inhibition of bacterial growth by two-fold serial broth dilution method; format: functional
Albumin [44] = biological target: T1, Albumin; experiment: Binding affinity to human serum albumin assessed as binding constant by Benesi-Hildebrand equation based analysis; format: ADME; conditions: isolated protein
Cell membrane [45] = experiment: Induction of cell membrane damage in Staphylococcus aureus assessed as corrugation with leakage of cellular contents at 2XMIC by SEM analysis; format: cell membranes
Albumin [46] = biological target: T1, Albumin; experiment: Binding affinity to human serum albumin assessed as increase in compound corresponding new band formation at 344 nm at 0 to 18 uM by UV-Vis absorption spectroscopic analysis; format: ADME; conditions: isolated protein, dose 0-18 µM
Albumin [47] = biological target: T1, Albumin; experiment: Binding affinity to human serum albumin assessed as binding constant at 298K by fluorescence based analysis; format: ADME; conditions: isolated protein
Albumin [48] = biological target: T1, Albumin; experiment: Binding affinity to human serum albumin assessed as dynamic quenching by measuring decrease in decay time of HSA at 0 to 21 uM by time-resolved fluorescence analysis; format: ADME; conditions: isolated protein, dose 0-21 µM
Staphylococcus aureus [49] = experiment: Anti-biofilm activity against Staphylococcus aureus assessed as inhibition of biofilm formation at 1/8XMIC by crystal violet assay; format: functional
Serratia marcescens = experiment: Antibacterial activity against Serratia marcescens assessed as inhibition of bacterial growth by two-fold serial broth dilution method; format: functional
Cell membrane [50] = experiment: Induction of Inner membrane disruption in Staphylococcus aureus assessed as increase in fluorescence intensity at MIC to 4XMIC by EtBr dye based fluorescence analysis; format: cell membranes
Albumin [51] = biological target: T1, Albumin; experiment: Binding affinity to human serum albumin assessed as quenching constant at 298K by fluorescence based analysis; format: ADME; conditions: isolated protein
[52] = tested on: Acinetobacter calcoaceticus; experiment: Antibacterial activity against Acinetobacter calcoaceticus assessed as inhibition of bacterial growth by two-fold serial broth dilution method; format: functional

For `O=C1c2cccc3cccc(c23)C(=O)N1Nc1nc(NCc2ccccc2)nc(N2CCOCC2)n1`, the Ratio (Enterococcus faecalis [1]) was “>=32”, the MIC (Escherichia coli) was 100 mg/L (≈ 208 µM) and the Kb (Albumin [2]) was 6.61 10^4/M. The Activity (Calf thymus DNA [3]) was “Active”, the KSV (Albumin [4]) was 1.18 10^5/M and the Activity (Staphylococcus aureus [5]) was “Active”. The MBC (Enterococcus faecalis [6]) was 0.19 mg/L (≈ 0.395 µM), the Activity (HEK293 [7]) was 11.8% and the deltaG (Albumin [8]) was -6.85 kJ/mol. The KSV (Albumin [9]) was 1.63 10^5/M, the Kb (Calf thymus DNA [10]) was 5.99 10^4/M and the Activity (HEK293 [11]) was 13.4%. The Ratio (Staphylococcus aureus [12]) was 2, the MIC (Staphylococcus aureus [13]) was 1.56 mg/L (≈ 3.24 µM) and the deltaS (Albumin [14]) was -5.88 J/mol.K. For the same compound, the Activity (Staphylococcus aureus [15]) was “Active”, the Activity (Albumin [16]) was “Active” and the Activity (HEK293 [17]) was 12.2%. The Activity (Cell membrane [18]) was “Active”, the Activity (HEK293 [19]) was 9.01% and the Activity (Staphylococcus aureus [20]) was “Active”. For the same compound, the deltaG (Albumin [21]) was -6.73 kJ/mol, the Activity (Cell membrane [22]) was “Active” and the KSV (Albumin [23]) was 1.13 10^5/M. The Activity (Calf thymus DNA [24]) was “Active”, the Kq (Calf thymus DNA [25]) was 1.22 10^12/M/s and the Activity (Cell membrane [26]) was “Tde”. The Activity (Albumin [27]) was “Active”, the KSV (Calf thymus DNA [28]) was 1.22 10^4/M and the MBC (Staphylococcus aureus [29]) was 3.25 mg/L (≈ 6.75 µM). The “inhibition (INH)” value (Staphylococcus aureus [30]) was 60%, the Activity (Cell membrane [31]) was “Dose-Dependent Effect” and the deltaH (Albumin [32]) was -8.61 kJ/mol. The deltaG (Albumin [33]) was -6.79 kJ/mol, the Kb (Albumin [34]) was 4.41 10^4/M and the Activity (Staphylococcus aureus [35]) was “Active”. For the same compound, the ΔTm (Calf thymus DNA [36]) was 12.8 °C, the “inhibition (INH)” value (Staphylococcus aureus [37]) was 30% and the Activity (Cell membrane [38]) was “Active”. For the same compound, the Kb (Calf thymus DNA [39]) was 8.26 10^4/M, the “inhibition (INH)” value (Staphylococcus aureus [40]) was 5% and the MIC (Enterococcus faecalis [41]) was 0.003 mg/L (≈ 0.00623 µM). The Activity (Cell membrane [42]) was “Tde”, the MIC (Bacillus subtilis) was 3.12 mg/L (≈ 6.49 µM) and the MIC (Salmonella enterica) was 200 mg/L (≈ 415 µM). The Activity (HEK293 [43]) was 10.5%, the MIC (Listeria) was 6.25 mg/L (≈ 13 µM) and the Kb (Albumin [44]) was 1.32 10^5/M. The Activity (Cell membrane [45]) was “Active”, the Activity (Albumin [46]) was “Active” and the Kb (Albumin [47]) was 11.01 10^4/M. The Activity (Albumin [48]) was “Active”, the “inhibition (INH)” value (Staphylococcus aureus [49]) was 10% and the MIC (Serratia marcescens) was 100 mg/L (≈ 208 µM). For the same compound, the Activity (Cell membrane [50]) was “Dose-Dependent Effect”, the Kq (Albumin [51]) was 1.63 10^13/M and the MIC [52] was 200 mg/L (≈ 415 µM).

Source: ChEMBL document CHEMBL5620398, “Membrane-active substituted triazines as antibacterial agents against Staphylococcus aureus with potential for low drug resistance and broad activity” (Eur J Med Chem, 2023)
